# What was measured:
# Format in all cases: biochemical
# [1] = molecular target: T1, purified A. niger NR (E.C. 1.6.6.2) (Aspergillus niger, UniProt P36858); assay: Regeneration of metal inactivated NR activity by 10 mM EDTA; settings: for NR activity after EDTA treatment, % of control: 100 μM metal five minutes, then 10 mM EDTA; for restoration of NR activity by EDTA after metal exposure / NR activity before EDTA treatment, % of control: 100 μM metal; for restoration of NR activity by EDTA after metal exposure: 10 mM EDTA; for NR activity before EDTA treatment, % of control: five minutes, 25° C., 10 mM KNO3
# T1 construct: purchased Sigma-Aldrich Co. (St. Louis, Mo.)
# T1 sequence (P36858 1-867): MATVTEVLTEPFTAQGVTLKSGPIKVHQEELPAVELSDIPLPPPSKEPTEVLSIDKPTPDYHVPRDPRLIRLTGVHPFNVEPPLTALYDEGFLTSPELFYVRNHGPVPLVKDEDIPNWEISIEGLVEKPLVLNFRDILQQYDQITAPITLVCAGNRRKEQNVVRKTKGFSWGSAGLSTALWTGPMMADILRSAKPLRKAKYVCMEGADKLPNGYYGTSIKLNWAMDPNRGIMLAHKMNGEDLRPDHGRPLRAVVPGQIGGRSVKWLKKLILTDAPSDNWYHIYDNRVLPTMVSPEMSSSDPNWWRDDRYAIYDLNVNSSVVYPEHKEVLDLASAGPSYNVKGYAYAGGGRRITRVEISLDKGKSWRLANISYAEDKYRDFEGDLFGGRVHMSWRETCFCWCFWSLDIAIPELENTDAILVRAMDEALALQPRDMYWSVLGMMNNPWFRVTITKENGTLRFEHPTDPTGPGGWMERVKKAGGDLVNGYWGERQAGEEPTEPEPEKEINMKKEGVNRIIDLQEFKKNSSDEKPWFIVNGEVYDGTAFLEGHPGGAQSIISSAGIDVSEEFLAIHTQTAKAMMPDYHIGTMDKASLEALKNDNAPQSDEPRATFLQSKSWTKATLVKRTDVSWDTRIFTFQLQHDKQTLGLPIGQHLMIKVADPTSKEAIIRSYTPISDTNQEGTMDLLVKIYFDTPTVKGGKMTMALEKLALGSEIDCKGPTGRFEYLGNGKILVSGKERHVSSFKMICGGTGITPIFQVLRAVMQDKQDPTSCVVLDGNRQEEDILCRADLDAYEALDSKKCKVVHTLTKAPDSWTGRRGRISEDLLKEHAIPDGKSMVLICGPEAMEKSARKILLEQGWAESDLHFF
# Experimental: To determine whether inhibition caused by exposure to the metals could be reversed by the addition of EDTA, NR was exposed to 100 μM of the following metals: Cd^2+, Cr^3+, Cu^2+, Pb^2+ and Zn^2+ for five minutes in a 96-well plate and incubated at 25° C. with 10 mM KNO3. After five minutes, 10 mM EDTA was added and solutions were shaken for 10 seconds. NADPH was added to sets of positive controls, negative controls, and metal/NR and EDTA for evaluation of NR activity both immediately after EDTA addition and 30 minutes after EDTA addition. Enzyme activity was measured by determining the amount of nitrite produced and reported as a percent of a positive control.
# [2] = molecular target: T1, purified A. niger NR (E.C. 1.6.6.2); assay: Evaluation of buffer-metal interactions, NR activity by rate of NADPH disappearance; settings: 5 μM metal; for NR sensitivity to metal in TRIS buffered system: 30 mM TRIS buffer pH 7.5; for NR sensitivity to metal in phosphate buffered system: 30 mM phosphate buffer pH 7.5
# Experimental: To determine the buffer that would provide minimal metal-buffer complexation and, therefore, allow maximal metal inhibition to NR activity, an analysis of various pH buffers was performed. HEPES, MOPS, PIPES, phosphate, and TRIS buffers were individually evaluated in the presence of NR and 5 μM of each of the following metals: Cr^3+, Cr^6+, Cd^2+, Cu^2+, Pb^2+, and Zn^2+. An unbuffered assay system was used to establish a baseline of metal-induced enzyme inhibition. Reagents were added in the following order: the metal stock solution, the buffer solution, KNO3 solution, NR, and NADPH.
# For these buffer experiments, NR and NADPH solutions were prepared in water rather than in the 30 mM MOPS, as was done for all other experiments. The final concentration of all reagents was 30 mM of each respective buffer, 5 μM metal, 50 μg ml^−1 NR, 10 mM KNO3 and 0.1 mM NADPH. NADPH addition initiated the reaction but NR activity was determined following the method described in Gilliam et al., Anal. Biochem., 212:359–365 (1993), which is based on the rate of NADPH disappearance. The presence of NADPH, which has a peak absorbance at 340 nm, was monitored with respect to time for 3 minutes using a Hewlett Packard 8452A UV-Vis spectrophotometer. NR activity was then reported as a ratio of the change in absorbance of a metal-containing sample to the change in absorbance of a positive (metal-free) control. The inherent instability of NADPH and the potential for oxidation in the presence of the metals used in these experiments was accounted for in negative controls, which contained all reagents but NR.
# To select a buffering system that allowed for maximum inhibition of the enzyme by metal ions, several common buffers, HEPES, MOPS, PIPES, Phosphate and TRIS were tested in metal inhibition assays. The buffers used in the assay affected the sensitivity of NR to the metal ions examined due to some of the buffers' ability to chelate metal ions, as shown in FIG. 1. NR activity is reported as the percent of a metal free control. Values represent the averages of five replicate experiments. NR activity assays were also run in an unbuffered water system to establish a baseline level of metal sensitivity and to determine if the buffers were shielding NR from inhibition by any of the metals that were examined. An unbuffered assay system was not selected for further experiments because the pH was not uniformly maintained for the various conditions under which NR activity would be measured. […] Therefore, MOPS was chosen for use in subsequent metal inhibition assays over a wider range of metal concentrations. The phosphate and TRIS buffers appeared to selectively protect NR against different metals. […] The opposite was found when the assay was conducted in a TRIS buffered system where NR was insensitive to Cu^2+ ions and was inhibited by Cd^2+, Cr^6+, Pb^2+, and Zn^2+.
# [3] = molecular target: T1, purified A. niger NR (E.C. 1.6.6.2); assay: EDTA and NTA chelation experiments, NR activity by nitrite production; settings: for effect of EDTA on the metal's ability to inhibit NR: EDTA 0.1 to 10 mM
# Experimental: To determine the ability of chelating agents to prevent NR inhibition, EDTA or NTA was added to the enzymatic assay. For the experiments in which either EDTA or NTA was used, the reagents were added in the following order: the appropriate metal solution, EDTA or NTA, NR, nitrate, and finally NADPH. To allow sufficient time for the metal and chelating agent to react, the metal and either EDTA or NTA were added together prior to the addition of NR. Final assay metal ion concentrations ranged from 0.01 to 1000 μM. EDTA and NTA had final concentrations of 0.1 mM, 1 mM and 10 mM. Final concentrations of NR, KNO3 and NADPH were as described above. NR activity was assayed by monitoring the production of nitrite, as described above.
# [4] = molecular target: T1, purified A. niger NR (E.C. 1.6.6.2); assay: Metal inhibition of NR activity, colorimetric nitrite production (Griess reaction), MOPS buffer; settings: for enzyme inhibition: 1 μM metal ion; for enzyme inhibition / span of concentrations over which NR activity is inhibited: MOPS buffer; for span of concentrations over which NR activity is inhibited: no chelating agent
# Experimental: NR activity was measured using the Griess reaction in which nitrite is colorimetrically determined by diazotization and diazomium coupling reactions of nitrite with sulfanilamide and N-(1-naphthyl)ethylenediamine. Measurements were conducted in 96-well microtiter plates, allowing multiple reactions to be quantified simultaneously. The assay followed the method as described in R. Kneer et al., Phytochemistry, 31:2663–2667 (1992), with modifications including the adaptation for use in a 96-well plate format, the reduction of the assay time to 5 minutes, and the substitution of a 12.5 mM MOPS buffer instead of the 33 mM TRIS buffer used.
# This was followed by the addition of 40 μl 0.2% (wt.) N-(1-naphthyl)ethylenediamine. The absorbance of the resulting pink solution read at 540 nm was recorded after ten minutes using a microplate reader (HTS7000 Plus Bioassay Reader, Perkin Elmer, Conn.).
# Negative controls containing all reagents except NR were run and analyzed for nitrite. An activity of 100% indicated the rate of nitrate conversion in the absence of Cr(III). Positive controls, which comprised no metal but comprised all other reagents, were also run. Additional controls comprising nitrite, NR and NADPH were run to rule out the possibility that NR reduced the nitrite.
# NR activity is reported as a percentage of the experimentally measured activity of the positive (metal-free) control or as a ratio of the change in absorbance of a metal-containing sample to the change in absorbance of a positive (metal-free) control. An activity of 100% indicated the rate of nitrate conversion in the absence of the metal. Data points represent the averages of seven replicate experiments and error bars represent the standard deviation of those averages, unless otherwise stated.
# NR, NADPH, and KNO3 were used in the same concentrations as in the metal-free NR and buffer evaluation assays. For metal-inhibition studies in the absence of a chelating agent, the appropriate concentration of metal stock solution was added to the NR and KNO3 solution. The mixture was allowed to incubate at 25° C. for five minutes prior to the addition of NADPH to allow adequate time for the metal and NR to interact. A 12.5 mM MOPS buffer solution was used to maintain the pH at 7.5. Final metal concentrations in the assay solution ranged from 0.01 μM to 1000 μM. Enzyme activity was determined as described above by the calorimetric quantification of nitrite production and reported as a percentage of the nitrite produced in a metal-free control.
# The sensitivity of NR to Cr(III) was determined at concentrations ranging from 1 to 10 μM. […] To further determine the extent to which NR was sensitive to metals in aqueous samples, the activity of purified NR was evaluated in the presence of Cd^2+, Cu^2+, Cr^3+, Cr^6+, Ni^2+, Pb^2+, and Zn^2+ ions at concentrations ranging from 0.01 to 1000 μM.
# [5] = 12.5 mM MOPS pH 7.5, no chelating agent
SMILES,"NR activity after EDTA treatment, % of control [1]",restoration of NR activity by EDTA after metal exposure [1],"NR activity before EDTA treatment, % of control [1]",NR sensitivity to metal in TRIS buffered system [2],NR sensitivity to metal in phosphate buffered system [2],effect of NTA on the inhibitory effects of the metal ([3]; 1 mM NTA),increase of the concentration range over which the metal inhibited NR ([3]; 10 mM EDTA),metal concentration up to which EDTA protected NR activity ([3]; 10 mM EDTA),protection of NR by NTA from exposure to the metal ([3]; 10 mM NTA),effect of EDTA on the metal's ability to inhibit NR ([3]; listed as Cr(VI)),effect of EDTA on the metal's ability to inhibit NR ([3]; listed as Cr^6+),NTA concentration up to which the metal's inhibitory effects on NR activity were not affected ([3]; NTA added to assay),enzyme inhibition [4],"metal concentration at which NR activity was substantially inhibited [4, 5]","metal concentration at which NR activity was substantially inhibited ([4]; 12.5 mM MOPS pH 7.5, no chelating agent, listed as Cr^6+)",span of concentrations over which NR activity is inhibited [4],metal concentrations over which NTA protected NR from metal induced inhibition ([3]; 10 mM NTA),"NR activity retained, percent of original activity (metal free control) ([4]; 1000 μM metal ion, 12.5 mM MOPS pH 7.5)","metal concentration at which NR activity was inhibited / adversely affected [4, 5]"
"[Cd+2] [Cd^2+, cadmium]",28% ±,partially restored,2.7% ±,inhibited,relatively insensitive,–,–,–,–,–,–,–,–,–,–,–,–,–,–
"[Cr+3] [Cr^3+, chromium]",4.3% ± 1.9%,unable to significantly restore,5.7% ± 10%,inhibited,relatively insensitive,did not affect,two orders of magnitude,up to 100 μM,did not protect,unchanged,virtually unaffected,up to 10 mM,62%,above 4 μM,1 µM,several orders of magnitude,–,–,–
"[Cu+2] [Cu^2+, copper]",5.1% ± 1.5%,unable to significantly restore,1.0% ± 0.3%,insensitive,inhibited,–,–,–,–,–,–,–,76%,1 µM,–,several orders of magnitude,up to 100 μM,–,–
"[Ni+2] [Ni^2+, nickel]",–,–,–,–,–,–,–,–,–,–,–,–,–,–,–,–,–,~20%,over 100 μM
"[Pb+2] [Pb^2+, lead]",40% ±,partially restored,1.3% ±,inhibited,relatively insensitive,–,–,–,–,–,–,–,–,–,–,–,–,–,–
"[Zn+2] [Zn^2+, zinc]",54% ±,partially restored,6.6% ±,inhibited,relatively insensitive,–,–,–,–,–,–,–,–,–,–,–,–,–,–
